Experiments:
[1] = Stability of stannous ions over 35 days at 60° C. (FIG. 3)
Protocol: Stability of stannous ions is assessed over a period of 35 days.

[2] = aqueous Sn (II) with the named additive, 35 days
Protocol: Stability of Sn (II) in aqueous solutions, and the ability of various additives to affect this stability, is assessed.

[3] = in water; cited from earlier work

[F][Sn][F] [stannous fluoride, reference compound]
stannous oxidized ([1]; stannous fluoride alone): ~80%

O=P(O)(O)O [phosphoric acid]
stannous oxidized ([1]; stannous fluoride in the presence of the named additive): 8-9%

O.O.O.O.O=P([O-])([O-])[O-].O=P([O-])([O-])[O-].[Zn+2].[Zn+2].[Zn+2] [Zinc phosphate, zinc phosphate]
prevention of the stannous-to-stannic oxidation [2]: positive impact | Ksp [3]: ~10^−35

O=P([O-])([O-])OP(=O)([O-])[O-].[Na+].[Na+].[Na+].[Na+] [TSPP, tetrasodium pyrophosphate]
oxidative stability of stannous ([1]; SnF2 in the presence of the named additive): no oxidative stability is observed

From US20250057740A1, “Stable Stannous Oral Care Product” (Colgate-Palmolive Company, priority 2018, published 2025)
